Assay results published in patent US7722890B2, “Synthetic anti-Candida albicans oligosaccharide based vaccines” (Theracarb, Inc., priority 2002, dated 2010).

How the values were obtained:
[1] = system: IgM monoclonal antibody B6.1; test: competitive inhibition ELISA: binding of IgM MAb B6.1 to C. albicans mannan extract; design: species or system mouse; conditions: FIG. 7
Description: (§1) These monoclonal antibodies are IgM B6.1 and IgG C3.1. The affinity of these monoclonal antibodies for the synthesized propyl glycosides was determined in a competitive inhibition ELISA. The monoclonal antibodies, MAb B6.1 (IgM) and MAb C3.1 (IgG3) were produced as concentrated tissue culture supernatants and diluted ˜1:40,000 (B6.1) and ˜1:2000 (C3.1). C. albicans mannan obtained by 2-mercaptoethanol extraction of whole cells without subsequent affinity fractionation^27 was dissolved in PBS (10 μg/mL) and the solution was used to coat 96 well ELISA plates (100 μL, 18 h at 4° C.). The plate was washed five times with PBST containing Tween 20, 0.05% v/v) and blocked for 1 h at room temperature (2% BSA PBS, 100 μL). The monoclonal antibodies were mixed with inhibitor dissolved in PBST at concentrations in the range between 0.1 μM to 1 mM, and the resulting solutions were added to the coated microtitre plate in triplicate and incubated at room temperature for 18 h. The plate was washed with PBST (5×), and goat anti-mouse (IgG or IgM) antibody conjugated to horseradish peroxidase (diluted 1:2000, Kirkegaard and Perry Lab) in PBST (100 μL) was added and incubated for 1 h at room temperature. The plate was washed with PBST (5×), 3,3′,5,5′-tetramethylbenzidine (TMB, 100 μL, Kirkegaard and Perry Lab) was added, and after 2 minutes the colour reaction was stopped by the addition of 1M phosphoric acid (100 μL). Absorbance was read at 450 nm and percent inhibition was calculated relative to wells containing antibody without inhibitor, and the concentration of ligand that gives 50% inhibition is quoted as an IC50 value.

MAb C3.1 (IgG3) = test: competitive inhibition ELISA: binding of IgG MAb C3.1 to C. albicans mannan extract; design: species or system mouse
Description: as §1, with “The plate was washed with PBST (5×), 3,3′,5,5′-tetramethylbenzidine (TMB, 100 μL, Kirkegaard and Perry Lab) was added, and after 2 minutes the colour reaction was stopped by the addition of 1M phosphoric acid (100 μL). Absorbance was read at 450 nm and percent inhibition was calculated relative to wells containing antibody without inhibitor, and the concentration of ligand that gives 50% inhibition is quoted as an IC50 value.” left out

CCCO[C@@H]1O[C@H](CO)[C@@H](O)[C@H](O)[C@@H]1O[C@@H]1O[C@H](CO)[C@@H](O)[C@H](O)[C@@H]1O [compound 17]
affinity of IgM antibody B6.1 for propyl mannosides [1]: surprisingly high affinity | affinity / inhibition curve for the IgG antibody (MAb C3.1 (IgG3); FIG. 8): flattened binding curve

CCCOC1OC(CO)C(O)C(O)C1OC1OC(CO)C(O)C(O)C1OC1OC(CO)C(O)C(O)C1O (centres unmarked) [compound 18]
affinity of IgM antibody B6.1 for propyl mannosides [1]: surprisingly high affinity | affinity for the IgG antibody relative to the IgM MAb (MAb C3.1 (IgG3); FIG. 8 vs FIG. 7): two fold

propyl (1-thio-β-D-mannopyranosyl)-(1→2)-β-D-mannopyranotrioside [compound 32]
affinity of IgM antibody B6.1 for propyl mannosides [1]: falls between the tri and tetrasaccharide in affinity
